From US8450494B2, “Disubstituted benzamide derivatives as glucokinase (GK) activators” (Cadila Healthcare Limited, priority 2010, dated 2013)

Molecular target: T1, glucokinase (GK) enzyme (Homo sapiens, UniProt P35557)
T1 sequence (P35557 1-465): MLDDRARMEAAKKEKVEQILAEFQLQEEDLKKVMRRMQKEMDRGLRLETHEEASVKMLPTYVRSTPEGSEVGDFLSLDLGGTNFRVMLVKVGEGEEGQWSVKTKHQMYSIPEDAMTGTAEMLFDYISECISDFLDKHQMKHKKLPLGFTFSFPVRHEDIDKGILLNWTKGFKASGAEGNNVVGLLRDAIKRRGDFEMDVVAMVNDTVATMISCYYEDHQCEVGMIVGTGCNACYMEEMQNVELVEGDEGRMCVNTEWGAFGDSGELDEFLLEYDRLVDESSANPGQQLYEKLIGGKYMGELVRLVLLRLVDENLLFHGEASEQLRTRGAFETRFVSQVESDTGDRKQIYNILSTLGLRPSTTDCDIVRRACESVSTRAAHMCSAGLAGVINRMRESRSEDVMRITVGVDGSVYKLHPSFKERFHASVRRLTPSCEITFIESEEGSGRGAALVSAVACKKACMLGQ
Assay: In-vitro glucokinase (GK) enzyme activation assay (coupled with glucose-6-phosphate dehydrogenase, absorbance at 340)
Format: biochemical
Settings: glucose 2.5 mM, ATP 1 mM; for EC50: GK activation; for activity at 0.1 µM / activity at 1 µM / activity at 5 µM / activity at 10 µM: read-out: % of GK activity wrt DMSO
Description: The compound of the invention was incubated with glucokinase (GK) enzyme (0.2 units) for 10 minutes in assay buffer at 26° C. After incubation, addition of glucose-6-phosphate dehydrogenase (2.5 units), ATP (1 mM) and glucose (2.5 mM). Absorbance is measured at 340 nm for 15 minutes with 10 second interval using UV transparent plate in kinetic mode on Spectramax-190 at 30° C.

Row | EC50 [nM] | activity at 0.1 µM (compound 0.1 uM) [%] | activity at 1 µM (compound 1 uM) [%] | activity at 5 µM (compound 5 uM) [%] | activity at 10 µM (compound 10 uM) [%] | % of GK activity wrt DMSO (compound 0.1 uM) [%] | % of GK activity wrt DMSO (compound 1 uM) [%] | % of GK activity wrt DMSO (compound 5 uM) [%] | % of GK activity wrt DMSO (compound 10 uM) [%] | SMILES
1 | 14 | 271 | 267 | 271 | 282 |  |  |  |  | COC[C@H](C)Oc1cc(Oc2ccc(-c3nnc(C)o3)cc2)cc(C(=O)Nc2nccs2)c1 [Example 2.1, (S)-3-(1-Methoxypropan-2-yloxy)-5-(4-(5-methyl-1,3,4-oxadiazol-2-yl)phenoxy)-N-(thiazol-2-yl)benzamide]
2 | 316 | 146 | 178 | 193 | 192 |  |  |  |  | Cc1nnc(-c2ccc(Oc3cc(OCC4CCCCC4)cc(C(=O)Nc4nccs4)c3)cc2)o1 [Example 2.2, 3-(Cyclohexylmethoxy)-5-(4-(5-methyl-1,3,4-oxadiazol-2-yl)phenoxy)-N-(thiazol-2-yl)benzamide]
3 |  | 123 | 137 | 148 | 150 |  |  |  |  | Cc1csc(NC(=O)c2cc(OCC3CCCCC3)cc(Oc3ccc(-c4nnc(C)o4)cc3)c2)n1 [Example 2.3, 3-(Cyclohexylmethoxy)-5-(4-(5-methyl-1,3,4-oxadiazol-2-yl)phenoxy)-N-(4-methylthiazol-2-yl)benzamide]
4 | 64 | 240 | 284 | 324 | 311 |  |  |  |  | C=CCOc1cc(Oc2ccc(-c3nnc(C)o3)cc2)cc(C(=O)Nc2nccs2)c1 [Example 2.4, 3-(Allyloxy)-5-(4-(5-methyl-1,3,4-oxadiazol-2-yl)phenoxy)-N-(thiazol-2-yl)benzamide]
5 |  |  |  |  |  | 128.2 | 196.4 | 251.8 | 249.3 | Cc1nnc(-c2ccc(Oc3cc(OCC4CCOCC4)cc(C(=O)Nc4nccs4)c3)cc2)o1 [Example 2.6]
6 |  | 288 | 349 | 353 | 345 |  |  |  |  | CCOC(=O)Cc1csc(NC(=O)c2cc(Oc3ccc(-c4nnc(C)o4)cc3)cc(OC(C)COC)c2)n1 (stereo not shown) [Example 2.7, Ethyl 2-(2-(3-((1-methoxypropan-2-yl)oxy)-5-(4-(5-methyl-1,3,4-oxadiazol-2-yl)phenoxy)benzamido)thiazol-4-yl)acetate]
7 |  |  |  |  |  | 239.5 | 323.6 | 336.3 | 328.9 | COCC(C)Oc1cc(Oc2ccc(-c3nnc(C)o3)cc2)cc(C(=O)Nc2nc(CC(=O)O)cs2)c1 (stereo not shown) [Example 2.8]
8 |  | 251 | 278 | 283 | 279 |  |  |  |  | COCC(C)Oc1cc(Oc2ccc(-c3nnc(C)o3)cc2)cc(C(=O)Nc2ncc(C)s2)c1 (stereo not shown) [Example 2.9, 3-((1-Methoxypropan-2-yl)oxy)-5-(4-(5-methyl-1,3,4-oxadiazol-2-yl)phenoxy)-N-(5-methylthiazol-2-yl)benzamide]
9 |  | 310 | 370 | 368 | 356 |  |  |  |  | COCC(C)Oc1cc(Oc2ccc(-c3nnc(C)o3)cc2)cc(C(=O)Nc2nc(C)cs2)c1 (stereo not shown) [Example 2.10, 3-((1-Methoxypropan-2-yl)oxy)-5-(4-(5-methyl-1,3,4-oxadiazol-2-yl)phenoxy)-N-(4-methylthiazol-2-yl)benzamide]
10 |  | 235 | 258 | 191 | 243 |  |  |  |  | COC[C@H](C)Oc1cc(Oc2ccc(-c3nnc(C)o3)cc2)cc(C(=O)Nc2ncc(C)s2)c1 [Example 2.11, (S)-3-((1-Methoxypropan-2-yl)oxy)-5-(4-(5-methyl-1,3,4-oxadiazol-2-yl)phenoxy)-N-(5-methylthiazol-2-yl)benzamide]
11 |  | 140 | 176 | 302 | 144 |  |  |  |  | C=CCCOc1cc(Oc2ccc(-c3nnc(C)o3)cc2)cc(C(=O)Nc2nc(C)cs2)c1 [Example 2.12, 3-(But-3-en-1-yloxy)-5-(4-(5-methyl-1,3,4-oxadiazol-2-yl)phenoxy)-N-(4-methylthiazol-2-yl)benzamide]
12 |  | 112 | 180 | 233 | 215 |  |  |  |  | C=CCCOc1cc(Oc2ccc(-c3nnc(C)o3)cc2)cc(C(=O)Nc2ncc(C)s2)c1 [Example 2.13, 3-(But-3-en-1-yloxy)-5-(4-(5-methyl-1,3,4-oxadiazol-2-yl)phenoxy)-N-(5-methylthiazol-2-yl)benzamide]
13 |  | 116 | 184 | 241 | 215 |  |  |  |  | C=CCOc1cc(Oc2ccc(-c3nnc(C)o3)cc2)cc(C(=O)Nc2ncc(C)s2)c1 [Example 2.14, 3-(Allyloxy)-5-(4-(5-methyl-1,3,4-oxadiazol-2-yl)phenoxy)-N-(5-methylthiazol-2-yl)benzamide]
14 |  | 105 | 164 | 239 | 266 |  |  |  |  | COC[C@@H](C)Oc1cc(Oc2ccc(-c3nnc(C)o3)cc2)cc(C(=O)Nc2nccs2)c1 [Example 2.15, (R)-3-(1-Methoxypropan-2-yloxy)-5-(4-(5-methyl-1,3,4-oxadiazol-2-yl)phenoxy)-N-(thiazol-2-yl)benzamide]

The next lines start with the compound.

Row | SMILES | EC50 [nM] | activity at 0.1 µM (compound 0.1 uM) [%] | activity at 1 µM (compound 1 uM) [%] | activity at 5 µM (compound 5 uM) [%] | activity at 10 µM (compound 10 uM) [%] | % of GK activity wrt DMSO (compound 0.1 uM) [%] | % of GK activity wrt DMSO (compound 1 uM) [%] | % of GK activity wrt DMSO (compound 5 uM) [%] | % of GK activity wrt DMSO (compound 10 uM) [%]
15 | COCC(C)Oc1cc(Oc2ccc(-c3nnc(C)o3)cc2)cc(C(=O)Nc2nccs2)c1 (stereo not shown) [Example 1.1, 3-(1-Methoxypropan-2-yloxy)-5-(4-(5-methyl-1,3,4-oxadiazol-2-yl)phenoxy)-N-(thiazol-2-yl)benzamide] | 21 | 276 | 309 | 316 | 309 |  |  |  | 
16 | C=CCCOc1cc(Oc2ccc(-c3nnc(C)o3)cc2)cc(C(=O)Nc2nccs2)c1 [Example 1.2, 3-(But-3-enyloxy)-5-(4-(5-methyl-1,3,4-oxadiazol-2-yl)phenoxy)-N-(thiazol-2-yl)benzamide] | 81 | 167 | 229 | 242 | 244 |  |  |  | 
17 | COCC(C)Oc1ccc(Oc2ccc(-c3nnc(C)o3)cc2)cc1C(=O)Nc1nccs1 (stereo not shown) [Example 1.3, 2-(1-Methoxypropan-2-yloxy)-5-(4-(5-methyl-1,3,4-oxadiazol-2-yl)phenoxy)-N-(thiazol-2-yl)benzamide] |  | 99.8 | 96.8 | 110 | 107 |  |  |  | 
18 | Cc1nnc(-c2ccc(Oc3cc(OC(C)C4CC4)cc(C(=O)Nc4nccs4)c3)cc2)o1 (stereo not shown) [Example 1.4, 3-(1-Cyclopropylethoxy)-5-(4-(5-methyl-1,3,4-oxadiazol-2-yl)phenoxy)-N-(thiazol-2-yl)benzamide] | 23 | 282 | 313 | 314 | 311 |  |  |  | 
19 | Cc1nnc(-c2ccc(Oc3cc(OCC4CC4)cc(C(=O)Nc4nccs4)c3)cc2)o1 [Example 1.5, 3-(Cyclopropylmethoxy)-5-(4-(5-methyl-1,3,4-oxadiazol-2-yl)phenoxy)-N-(thiazol-2-yl)benzamide] | 88 | 234 | 292 | 305 | 293 |  |  |  | 
20 | Cc1nnc(-c2ccc(Oc3cc(OCC4CCC5(CC5)C4)cc(C(=O)Nc4nccs4)c3)cc2)o1 (stereo not shown) [Example 1.6, 3-(4-(5-Methyl-1,3,4-oxadiazol-2-yl)phenoxy)-5-(spiro[2.4]heptan-5-ylmethoxy)-N-(thiazol-2-yl)benzamide] |  | 134 | 178 | 183 | 165 |  |  |  | 
21 | COC(C)CCOc1cc(Oc2ccc(-c3nnc(C)o3)cc2)cc(C(=O)Nc2nccs2)c1 (stereo not shown) [Example 1.7, 3-(3-Methoxybutoxy)-5-(4-(5-methyl-1,3,4-oxadiazol-2-yl)phenoxy)-N-(thiazol-2-yl)benzamide] |  | 164 | 228 | 245 | 236 |  |  |  | 
22 | Cc1nnc(-c2ccc(Oc3cc(OCC45CC6CC(CC(C6)C4)C5)cc(C(=O)Nc4nccs4)c3)cc2)o1 [Example 1.9, 3-(4-(5-Methyl-1,3,4-oxadiazol-2-yl)phenoxy)-5-(admantanemethoxy)-N-(thiazol-2-yl)benzamide] |  |  |  |  |  | 121.83 | 137.7 | 141.3 | 153.4
23 | Cc1nnc(-c2ccc(Oc3cc(OCC(C)C)cc(C(=O)Nc4nccs4)c3)cc2)o1 [Example 2.5, 3-Isobutoxy-5-(4-(5-methyl-1,3,4-oxadiazol-2-yl)phenoxy)-N-(thiazol-2-yl)benzamide] | 103 | 195 | 256 | 282 | 278 |  |  |  | 
